Experimental data as given in article PMC13586173, “Synthetic cannabinoid receptor agonists inhibit the cardiac voltage-gated potassium channel hERG” (Acta Pharmacologica Sinica, 2026).
Like-named read-outs stand apart in the source and are kept apart here.

What was measured:
KV7.1/KCNE1 = KV7.1/KCNE1 (Homo sapiens, UniProt P51787); test: Automated patch-clamp (APC, population patch), CHO cells stably expressing human KV7.1/KCNE1; format: cell-based; conditions: for KV7.1/KCNE1 channel Efficacy (max reduction in Gmax) Gmin: 1 = no reduction of Gmax, 0 = complete reduction; for KV7.1/KCNE1 channel Efficacy (max reduction in Gmax) Gmin, marked *: * Greatest efficacy achieved with a concentration between 10 and 30 µM (no fit)
Experimental: Both hERG and KV7.1/KCNE1 contribute to cardiomyocyte repolarization (Fig. 1g). Inhibition of KV7.1/KCNE1 alone can be proarrhythmic. Moreover, under conditions with impaired hERG function, upregulation of KV7.1/KCNE1 has been proposed to partially compensate for the loss of hERG [38, 39]. […] To assess if SCRAs also affect KV7.1/KCNE1, we used mammalian CHO cells stably expressing human KV7.1/KCNE1. […] At 10 µM, 7 of the SCRAs caused a significant positive shift in V50 (Fig. 5e), with the largest shift induced by MDMB-[…] (ΔV50 = +10.3 ± 1.6 mV).
Automated patch-clamp recordings were performed at 22 °C.
For the KV7.1/KCNE1 voltage ladder protocol (SI Table VII) the solutions were present for 60 s before recording started. KV7.1/KCNE1 cells were kept at a holding voltage of −90 mV, with brief hyperpolarizing steps to −100 mV for 540 ms (to calculate ohmic leakage). […] The time between compound application and the first voltage protocol was 60 s. Time between sweeps was 15 s. The voltage ladder protocol was executed every 220 s.
For Gmax (rel.), N was set to –1. For ΔV50, N was set to 1.

hERG (KV11.1) = hERG (KV11.1) (Homo sapiens, UniProt Q12809); test: Automated planar patch-clamp (APC, QPatch II 48), voltage-ladder protocol, CHO cells stably expressing human hERG; conditions: for hERG channel Efficacy (max reduction in Gmax) Gmin, marked ?: ? Unreliable values (fit failed QC, extrapolated); for effect on Gmax of hERG (in words): APC concentration-response, 1.11 to 30 µM; for hERG channel Efficacy (max reduction in Gmax) Gmin / hERG channel Efficacy (max reduction in Gmax) Gmin, marked *: 1 = no reduction of Gmax; for hERG channel Efficacy (max reduction in Gmax) Gmin: 0 = complete reduction; for hERG channel Efficacy (max reduction in Gmax) Gmin, marked *: * Greatest efficacy achieved with a concentration between 10 and 30 µM (no fit)
Description: To assess the effect of a large set of SCRAs on hERG (see SI Table I and SI Fig. S1 for a list of the 36 included SCRAs and corresponding structures), we used the automated planar patch-clamp (APC) technique on mammalian Chinese hamster ovary (CHO) cells stably expressing human hERG. […] We employed a voltage-ladder protocol to obtain information on SCRA effects on the channel’s voltage dependence of activation (V50) and maximal conductance (Gmax) (both determined from Boltzmann fits of the instantaneous tail currents; see Methods for details).
Stably expressing cell lines “CHO-hERG DUO” (here referred to as hERG; gene: KCNH2) and “CHO-KVLQT1/mink” (here referred to as KV7.1/KCNE1; gene: KCNQ1/KCNE1), (B’SYS GmBH, Witterswil, Switzerland) were used to study whole-cell K^+ currents on a QPatch II 48 APC system (Sophion Bioscience A/S, Ballerup, Denmark). Cell culture and passaging were performed in accordance with standard operating procedures. Cells were harvested in serum-free medium with Detachin^TM (Genlantis, CA, USA) immediately prior to experiments. For MPC on transient cell lines, CHO-K1 CCL-61 cells (ATCC, Manassas, VA, USA) were cultured in Ham’s F-12 medium supplemented with 10% fetal bovine serum (FBS) and 100 U/mL penicillin–100 µg/mL streptomycin (Gibco, Thermo Fisher Scientific, Waltham, MA, USA). Transfection was carried out using JetOPTIMUS® reagent (Polyplus, Strasbourg, France) according to the manufacturer’s protocol. Briefly, 80,000 cells were seeded per well in a 12-well plate and transfected with 300 ng of pcDNA3-GFP plasmid, 700 ng of pcDNA3-hERG plasmid with either the wild-type or mutant channels (S624A, S649A, or Y652A), and […] of JetOPTIMUS. After 8 h, cells were detached and reseeded at a density of 30,000 cells per well onto several poly-D-lysine-coated glass coverslips placed in a 12-well plate. For the CB1 receptor activity assay, the AequoScreen® recombinant Chinese hamster ovary (CHO) K1 cell line, stably expressing the human CB1 receptor (ES-110-A), was used (Revvity, Sollentuna, Sweden).
Automated patch-clamp recordings were performed at 22 °C. Freshly harvested cell suspensions (2–3 million cells/mL) were prepared for experiments by the QPatch II 48 automated cell preparation unit. Cells were centrifuged for 150 s at 150 × g and washed twice with the extracellular recording solution. Cells were handled by the integrated pipetting robot and added to the 48 experiment sites on the planar patch-clamp consumable QPlate. Each experiment site contained an individual pair of recording electrodes and a silicon/glass biochip embedded in the flow channels. Single-cell patch recordings (n = 1 is defined as one single-cell patch) and population patch recordings (up to 10 cells per well, n = 1 is defined as one population patch) were performed for hERG and for KV7.1/KCNE1, respectively. Cells were applied, positioned and sealed to the patch holes by a mild suction protocol; whole-cell access was then achieved by a stronger suction pulse.
The intracellular solution contained (in mM): 100 KCl, 4.3 CaCl2, 1.4 MgCl2, 25/10 KOH/EGTA, 24 KF, 10 HEPES, and 4 Mg-ATP (hERG) or 4 Na-ATP (KV7.1/KCNE1). […] The compounds were pre-diluted in DMSO, and the final concentration of DMSO (0.3%) was equal in all recording solutions to control for vehicle effects. The compounds made no contact with plastics following dilution in extracellular solution.
An overview of experimental conditions is provided in SI Table VII, Square voltage pulses in a voltage ladder protocol were used to study current/voltage (I(V)) relationships. Each voltage protocol was first run three times in the presence of vehicle (extracellular solution supplemented with 0.3% DMSO), the 3rd serving as the baseline. Voltage protocols were repeated in the presence of 4 cumulatively rising concentrations of test compound, followed by application of vehicle for recovery.

human CB1 receptor = target: T1, human CB1 receptor (Homo sapiens, UniProt P21554); test: AequoScreen intracellular calcium release assay, CHO-K1 cells stably expressing CB1; format: cell-based
T1 construct: host or cells: CHO-K1 stably expressing CB1, apoaequorin and Gα16

hERG = conditions: cited from earlier work
[1] = CB1 receptor Potency EC50, normalized to median EC50 of JWH-018, n ≥ 3 (JWH-030 n = 2)
[2] = normalized to maximum of JWH-018, n ≥ 3 (JWH-030 n = 2)
[3] = read-out: hERG channel Potency IC50 (Gmax reduction), APC, 22 °C, best fit
[4] = normalized to median EC50 of JWH-018, n ≥ 3 (JWH-030 n = 2), read-out: CB1 receptor Potency EC50
[5] = APC, best fit, read-out: KV7.1/KCNE1 channel Potency IC50 (Gmax reduction)
[6] = read-out: CB1 receptor Potency EC50

T1 sequence (P21554 whole entry): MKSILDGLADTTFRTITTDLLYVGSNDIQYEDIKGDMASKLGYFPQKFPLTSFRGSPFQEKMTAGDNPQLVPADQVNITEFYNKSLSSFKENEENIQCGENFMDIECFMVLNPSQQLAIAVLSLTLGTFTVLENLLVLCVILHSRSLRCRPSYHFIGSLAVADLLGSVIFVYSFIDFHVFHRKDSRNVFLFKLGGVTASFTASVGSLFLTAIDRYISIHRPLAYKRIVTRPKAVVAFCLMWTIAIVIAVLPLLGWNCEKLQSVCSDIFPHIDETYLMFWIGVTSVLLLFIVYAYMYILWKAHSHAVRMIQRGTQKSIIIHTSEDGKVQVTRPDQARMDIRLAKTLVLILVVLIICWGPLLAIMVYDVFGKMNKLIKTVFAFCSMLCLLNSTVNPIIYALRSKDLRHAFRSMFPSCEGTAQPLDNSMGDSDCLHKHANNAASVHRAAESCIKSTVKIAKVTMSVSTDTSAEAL
Sequence of hERG (KV11.1) (Q12809 whole entry): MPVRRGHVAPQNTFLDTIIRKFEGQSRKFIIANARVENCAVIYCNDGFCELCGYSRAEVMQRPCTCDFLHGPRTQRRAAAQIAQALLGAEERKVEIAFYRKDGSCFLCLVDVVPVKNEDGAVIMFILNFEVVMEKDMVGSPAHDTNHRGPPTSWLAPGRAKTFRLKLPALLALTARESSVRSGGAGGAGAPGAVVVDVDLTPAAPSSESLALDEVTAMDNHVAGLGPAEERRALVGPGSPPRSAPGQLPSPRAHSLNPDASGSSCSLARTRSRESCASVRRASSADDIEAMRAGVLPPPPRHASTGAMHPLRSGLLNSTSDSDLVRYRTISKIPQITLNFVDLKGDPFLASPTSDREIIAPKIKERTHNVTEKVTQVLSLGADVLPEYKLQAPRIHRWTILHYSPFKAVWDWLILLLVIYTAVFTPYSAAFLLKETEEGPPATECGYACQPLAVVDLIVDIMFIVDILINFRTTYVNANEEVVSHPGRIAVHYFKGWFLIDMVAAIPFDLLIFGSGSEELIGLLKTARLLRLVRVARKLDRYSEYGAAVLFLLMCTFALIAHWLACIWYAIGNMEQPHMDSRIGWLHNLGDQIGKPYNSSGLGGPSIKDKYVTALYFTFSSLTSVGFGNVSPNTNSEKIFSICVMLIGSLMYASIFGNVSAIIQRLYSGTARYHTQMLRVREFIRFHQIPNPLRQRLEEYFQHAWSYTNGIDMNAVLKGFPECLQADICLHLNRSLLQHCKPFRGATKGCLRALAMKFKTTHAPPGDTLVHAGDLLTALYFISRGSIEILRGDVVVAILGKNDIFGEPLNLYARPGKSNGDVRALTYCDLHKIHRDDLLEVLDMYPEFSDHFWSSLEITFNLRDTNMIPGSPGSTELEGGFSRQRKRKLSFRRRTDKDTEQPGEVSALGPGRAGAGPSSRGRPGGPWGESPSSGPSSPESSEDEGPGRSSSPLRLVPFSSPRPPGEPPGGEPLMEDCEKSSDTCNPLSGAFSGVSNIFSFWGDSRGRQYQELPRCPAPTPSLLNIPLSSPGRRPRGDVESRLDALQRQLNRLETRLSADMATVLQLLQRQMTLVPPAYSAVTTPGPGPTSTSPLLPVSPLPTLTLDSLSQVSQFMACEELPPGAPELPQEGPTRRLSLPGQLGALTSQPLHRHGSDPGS
Sequence of KV7.1/KCNE1 (P51787 whole entry): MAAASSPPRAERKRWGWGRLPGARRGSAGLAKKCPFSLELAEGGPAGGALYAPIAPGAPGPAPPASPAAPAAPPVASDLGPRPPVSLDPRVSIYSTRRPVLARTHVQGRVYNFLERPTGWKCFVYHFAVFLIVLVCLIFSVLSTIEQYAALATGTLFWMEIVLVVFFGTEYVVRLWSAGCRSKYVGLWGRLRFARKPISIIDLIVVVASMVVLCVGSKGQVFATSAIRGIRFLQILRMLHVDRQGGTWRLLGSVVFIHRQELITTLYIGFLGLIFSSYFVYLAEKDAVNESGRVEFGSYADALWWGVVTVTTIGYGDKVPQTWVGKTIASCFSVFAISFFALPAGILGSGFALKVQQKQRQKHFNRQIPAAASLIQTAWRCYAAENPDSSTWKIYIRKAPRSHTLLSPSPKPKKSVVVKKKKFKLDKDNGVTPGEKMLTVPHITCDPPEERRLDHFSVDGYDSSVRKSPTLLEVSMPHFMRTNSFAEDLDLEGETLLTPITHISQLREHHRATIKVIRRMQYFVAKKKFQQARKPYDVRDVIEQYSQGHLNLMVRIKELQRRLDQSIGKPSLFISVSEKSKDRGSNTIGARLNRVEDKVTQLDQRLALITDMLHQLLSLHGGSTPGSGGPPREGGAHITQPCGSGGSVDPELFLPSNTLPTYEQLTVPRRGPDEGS

Row | SMILES | effect on Gmax of hERG (in words) (hERG (KV11.1)) | CB1 receptor Efficacy Emax (human CB1 receptor; [2]) [% JWH-018] | KV7.1/KCNE1 channel Efficacy (max reduction in Gmax) Gmin, marked * (KV7.1/KCNE1) | hERG channel Efficacy (max reduction in Gmax) Gmin (hERG (KV11.1); best fit, APC, 22 °C) | IC50 (hERG (KV11.1); [3]) [µM] | EC50 (human CB1 receptor; [4]) [µM] | also measured
1 | O=C(NC12CC3CC(CC(C3)C1)C2)c1nn(CCCCCF)c2ccccc12 [5F-APINACA] | inhibitory effects on Gmax | 102 | – | – | – | – | IC50 (KV7.1/KCNE1): 35.1 µM; Gmax effect on hERG versus KV7.1/KCNE1 (in words) (KV7.1/KCNE1; 10 µM, both channels by APC): only on KV7.1/KCNE1; KV7.1/KCNE1 channel Efficacy (max reduction in Gmax) Gmin (KV7.1/KCNE1; best fit): 0; IC50 (hERG (KV11.1)): > 100 µM; hERG channel Efficacy (max reduction in Gmax) Gmin, marked ? (hERG (KV11.1)): 0.00; EC50 (human CB1 receptor; [1]): 0.0166 µM; hERG inhibition (in words) (hERG): inhibit hERG; IC50 (hERG; read-out: hERG IC50, HEK293 cells, 37 °C): 2.2 µM
2 | CC(C)(C)[C@H](NC(=O)Cc1cn(Cc2ccc(F)cc2)c2ccccc12)C(N)=O [ADB-FUBIATA] | – | – | – | – | – | – | hERG inhibition (in words) (hERG): inhibit hERG
3 | C=CCCCn1nc(C(=O)NC(C(N)=O)C(C)(C)C)c2ccccc21 (stereo not drawn) [ADB-4en-PINACA] | no or limited effects | 117 | 1.13 | 0.52 | 9.1 | 0.0174 | –
4 | CCCCCCN1C(=O)C(=NNC(=O)c2ccccc2)c2ccccc21 [BZO-HEXOXIZID] | – | 84.3 | – | – | – | 5.13 | IC50 (KV7.1/KCNE1; [5]): 3 µM; KV7.1/KCNE1 channel Efficacy (max reduction in Gmax) Gmin (KV7.1/KCNE1; best fit): 0.44; hERG channel Efficacy (max reduction in Gmax) Gmin, marked ? (hERG (KV11.1)): 0.00; CB1 EC50 (in words) (human CB1 receptor): low micromolar
5 | CCCCn1nc(C(=O)NC(C(N)=O)C(C)(C)C)c2cc(Br)ccc21 (stereo not drawn) [ADB-5'Br-BUTINACA] | – | 110 | 0.80 | 0.36 | 40.1 | 0.018 | –
6 | C=CCCCN1C(=O)/C(=N\NC(=O)c2ccccc2)c2ccccc21 [BZO-4en-POXIZID] | concentration-dependent inhibitory effects on Gmax | 112 | 0.79 | 0.64 | – | – | IC50 (hERG (KV11.1)): 3.9 µM; EC50 (human CB1 receptor; [1]): 1.7 µM
7 | CC(C)(C)[C@H](NC(=O)c1n[nH]c2ccc(Br)cc12)C(N)=O [ADB-5'Br-INACA] | no or limited effects | 111 | 1.04 | 0.70 | 24.5 | 2.29 | –
8 | CCCCCn1cc(C(=O)c2ccc(C)c3ccccc23)c2ccccc21 [JWH-122] | – | 105 | 0.87 | 0.73 | 9.4 | 0.00829 | –
9 | COC(=O)C(NC(=O)c1cn(CC2CCCCC2)c2ccccc12)C(C)(C)C (stereo not drawn) [MDMB-CHMICA] | clear inhibiting Gmax effects on hERG | 107 | 0.78 | 0.55 | – | – | IC50 (hERG (KV11.1)): 3.2 µM; EC50 (human CB1 receptor; [1]): 0.00307 µM
10 | CCCCn1nc(C(=O)NC(C(=O)OC)C(C)(C)C)c2cc(Br)ccc21 (stereo not drawn) [MDMB-5'Br-BUTINACA] | – | 114 | 0.60 | 0.67 | – | – | effect on KV7.1/KCNE1 (in words) (KV7.1/KCNE1; APC): both reduced Gmax and shifted V50 towards more positive voltages; IC50 (hERG (KV11.1)): 6.2 µM
11 | CC(C)[C@H](NC(=O)c1cn(CC2CCCCC2)c2ccccc12)C(N)=O [AB-CHMICA] | – | 110 | – | 0.64 | 8.2 | 0.0201 | IC50 (KV7.1/KCNE1; [5]): 16.2 µM; KV7.1/KCNE1 channel Efficacy (max reduction in Gmax) Gmin (KV7.1/KCNE1; best fit): 0.46
12 | COC(=O)[C@@H](NC(=O)c1nn(Cc2ccc(F)cc2)c2ccccc12)C(C)(C)C [MDMB-FUBINACA] | – | 103 | 0.59 | 0.25 | 10.2 | 0.000795 | CB1 EC50 (in words) (human CB1 receptor): sub-nanomolar
13 | CCCCCn1cc(C(=O)C2C(C)(C)C2(C)C)c2ccccc21 [UR-144] | non-inhibitor | 101 | 0.92 | – | – | – | hERG channel Efficacy (max reduction in Gmax) Gmin, marked * (hERG (KV11.1)): 0.94; EC50 (human CB1 receptor; [1]): 0.414 µM
14 | CC(C)[C@H](NC(=O)c1nn(Cc2ccc(F)cc2)c2ccccc12)C(N)=O [AB-FUBINACA] | – | 108 | – | 0.00 | 30.4 | 0.00894 | IC50 (KV7.1/KCNE1; [5]): 40.8 µM; KV7.1/KCNE1 channel Efficacy (max reduction in Gmax) Gmin (KV7.1/KCNE1; best fit): 0.15
15 | COC(=O)[C@@H](NC(=O)c1cn(CCCCF)c2ccccc12)C(C)(C)C [4F-MDMB-BUTICA] | – | 115 | 0.87 | 0.35 | 26.2 | 0.0167 | –
16 | CCCCCn1nc(C(=O)NC23CC4CC(CC(C4)C2)C3)c2ccccc21 [APINACA] | non-inhibitor | 108 | 0.88 | – | – | 0.0304 | hERG channel Efficacy (max reduction in Gmax) Gmin, marked * (hERG (KV11.1)): 0.90
17 | CC(C)[C@H](NC(=O)c1nn(CC2CCCCC2)c2ccccc12)C(N)=O | – | – | 0.72 | 0.00 | 51.2 | – | CB1 receptor Efficacy Emax (human CB1 receptor): 108 % JWH-018; EC50 (human CB1 receptor; [6]): 0.00898 µM
18 | CC(C)(C)[C@H](NC(=O)c1nn(CC2CCCCC2)c2ccccc12)C(N)=O | – | – | 0.93 | 0.13 | 11.3 | – | CB1 receptor Efficacy Emax (human CB1 receptor): 107 % JWH-018; EC50 (human CB1 receptor; [6]): 0.00387 µM
